Reference: US8481528B2 (Hoffmann-La Roche Inc., priority 2010, dated 2013)
Read-outs that look alike come from different tables or passages of the source.

Target: T1, human V1a receptor (Homo sapiens, UniProt P37288)
T1 construct: expressed in transfected cells; host or cells: HEK293 cells, transiently transfected; cell membranes
Experiment: human V1a receptor binding (3H-Vasopressin SPA, HEK293 membranes)
Method: The human V1a receptor was cloned by RT-PCR from total human liver RNA. The coding sequence was subcloned in an expression vector after sequencing to confirm the identity of the amplified sequence. […] Cell membranes were prepared from HEK293 cells transiently transfected with the expression vector and grown in 20 liter fermenters with the following protocol.
50 g of cells are resuspended in 30 ml freshly prepared ice cold Lysis buffer (50 mM HEPES, 1 mM EDTA, 10 mM magnesium dichloride adjusted to pH=7.4+complete cocktail of protease inhibitor (Roche Diagnostics)). Homogenized with Polytron for 1 min and sonicated on ice for 2×2 minutes at 80% intensity (Vibracell sonicator). The preparation is centrifuged 20 min at 500 g at 4° C., the pellet is discarded and the supernatant centrifuged 1 hour at 43′000 g at 4° C. (19'000 rpm). The pellet is resuspended in 12.5 ml Lysis buffer+12.5 ml sucrose 20% and homogenized using a Polytron for 1-2 min. The protein concentration is determined by the Bradford method and aliquots are stored at −80° C. until use. For binding studies 60 mg Yttrium silicate SPA beads (Amersham®) are mixed with an aliquot of membrane in binding buffer (50 mM Tris, 120 mM sodium chloride, 5 mM potassium chloride, 2 mM calcium dichloride, 10 mM magnesium dichloride) for 15 minutes with mixing. 50 μl of bead/membrane mixture is then added to each well of a 96 well plate, followed by 50 μl of 4 nM 3H-Vasopressin (American Radiolabeled Chemicals). For total binding measurement 100 μl of binding buffer are added to the respective wells, for non-specific binding 100 μl of 8.4 mM cold vasopressin and for compound testing 100 μl of a serial dilution of each compound in 2% dimethyl sulfoxide. The plate is incubated 1 h at room temperature, centrifuged 1 min at 1000 g and counted on a Packard Top-Count. Non-specific binding counts are subtracted from each well and data is normalized to the maximum specific binding set at 100%. To calculate an IC50 the curve is fitted using a non-linear regression model (XLfit) and the Ki is calculated using the Cheng-Prussoff equation.

[1] = 3H-Vasopressin displacement, membranes of HEK293 cells transiently transfected with human V1a receptor, Ki by Cheng-Prusoff, read-out: pKi (hV1a) (converted)

T1 sequence (P37288 whole entry): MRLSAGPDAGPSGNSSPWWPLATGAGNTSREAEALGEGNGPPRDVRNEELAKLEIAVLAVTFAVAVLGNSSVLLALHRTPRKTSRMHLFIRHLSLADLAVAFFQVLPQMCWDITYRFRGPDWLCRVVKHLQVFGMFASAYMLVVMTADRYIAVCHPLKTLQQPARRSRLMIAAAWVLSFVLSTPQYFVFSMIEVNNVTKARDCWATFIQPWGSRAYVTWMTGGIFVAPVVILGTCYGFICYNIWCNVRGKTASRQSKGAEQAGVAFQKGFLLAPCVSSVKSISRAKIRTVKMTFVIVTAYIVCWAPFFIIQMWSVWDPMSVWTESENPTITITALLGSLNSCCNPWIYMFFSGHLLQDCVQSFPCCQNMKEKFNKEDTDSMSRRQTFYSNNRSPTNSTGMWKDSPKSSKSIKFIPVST

Row | SMILES | Ki [1] [nM] | Ki [nM]
1 | CC(C)(C)OC(=O)N1Cc2cc(Cl)ccc2-n2c(nnc2[C@H]2CC[C@H](c3nsc4cccnc43)CC2)C1 [Example 27, trans-8-Chloro-1-(4-isothiazolo[4,5-b]pyridin-3-yl-cyclohexyl)-4H,6H-2,3,5,10b-tetraaza-benzo[e]azulene-5-carboxylic acid tert-butyl ester] | 4.27 | –
2 | Clc1ccc2c(c1)CNCc1nnc([C@H]3CC[C@H](c4nsc5cccnc54)CC3)n1-2 [Example 28, trans-8-Chloro-1-(4-isothiazolo[4,5-b]pyridin-3-yl-cyclohexyl)-5,6-dihydro-4H-2,3,5,10b-tetraaza-benzo[e]azulene] | 1.1 | –
3 | CN1Cc2cc(Cl)ccc2-n2c(nnc2[C@H]2CC[C@H](c3nsc4cccnc43)CC2)C1 [Example 29, trans-8-Chloro-1-(4-isothiazolo[4,5-b]pyridin-3-yl-cyclohexyl)-5-methyl-5,6-dihydro-4H-2,3,5,10b-tetraaza-benzo[e]azulene] | 0.794 | –
4 | CC(C)(C)OC(=O)N1Cc2cc(Cl)ccc2-n2c(nnc2[C@H]2CC[C@H](c3nsc4cnccc43)CC2)C1 [Example 30] | 5.5 | –
5 | Clc1ccc2c(c1)CNCc1nnc([C@H]3CC[C@H](c4nsc5cnccc54)CC3)n1-2 [Example 31, trans-8-Chloro-1-(4-isothiazolo[5,4-c]pyridin-3-yl-cyclohexyl)-5,6-dihydro-4H-2,3,5,10b-tetraaza-benzo[e]azulene] | 2.57 | –
6 | CN1Cc2cc(Cl)ccc2-n2c(nnc2[C@H]2CC[C@H](c3nsc4cnccc43)CC2)C1 [Example 32] | 0.891 | –
7 | CC(C)(C)OC(=O)N1Cc2cc(Cl)ccc2-n2c(nnc2[C@H]2CC[C@@H](c3nsc4ccccc43)CC2)C1 [Example 33, cis-1-(4-Benzo[d]isothiazol-3-yl-cyclohexyl)-8-chloro-4H,6H-2,3,5,10b-tetraaza-benzo[e]azulene-5-carboxylic acid tert-butyl ester] | 1.1 | –
8 | Clc1ccc2c(c1)CNCc1nnc([C@H]3CC[C@@H](c4nsc5ccccc54)CC3)n1-2 [Example 34, cis-1-(4-Benzo[d]isothiazol-3-yl-cyclohexyl)-8-chloro-5,6-dihydro-4H-2,3,5,10b-tetraaza-benzo[e]azulene] | – | 25.7
9 | CN1Cc2cc(Cl)ccc2-n2c(nnc2[C@H]2CC[C@@H](c3nsc4ccccc43)CC2)C1 [Example 35, cis-1-(4-Benzo[d]isothiazol-3-yl-cyclohexyl)-8-chloro-5-methyl-5,6-dihydro-4H-2,3,5,10b-tetraaza-benzo[e]azulene] | 4.27 | –
